# Results reported in PubChem BioAssay AID330 (DTP/NCI, 2004).
# Values joined by “and” are separate entries in the source; they are usually repeats but may differ in a detail not shown here. Identical values can stand only once. Toxic doses and inconclusive results are not listed.
# Test system: P388 leukemia ip, CD2F1 mice, survival T/C
# Experiment: NCI In Vivo Anticancer Drug Screen. Data for tumor model P388 Leukemia (intraperitoneal) in CD2F1 (CDF1) mice
# Conditions: endpoint: median survival time, higher = longer survival
# In short: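 Mice carrying the transplanted tumor received test compound or vehicle. Survival was recorded in each group, and the value is the treated-group measurement divided by that of the vehicle-treated control group.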
# [1] = dose: 25.0 mg/kg/injection, schedule: Q01DX005 (ip), vehicle: Klucel (hydroxypropylcellulose) (HPC)
# [2] = dose: 50.0 mg/kg/injection, schedule: Q01DX005 (ip), vehicle: Klucel (hydroxypropylcellulose) (HPC)
# [3] = dose: 100.0 mg/kg/injection, schedule: Q01DX005 (ip), vehicle: Klucel (hydroxypropylcellulose) (HPC)
# [4] = dose: 50.0 mg/kg/injection, schedule: Q01DX009 (ip), vehicle: Klucel (hydroxypropylcellulose) (HPC)
# [5] = dose: 100.0 mg/kg/injection, schedule: Q01DX009 (ip), vehicle: Klucel (hydroxypropylcellulose) (HPC)
# [6] = dose: 200.0 mg/kg/injection, schedule: Q01DX009 (ip), vehicle: Klucel (hydroxypropylcellulose) (HPC)
# [7] = dose: 50.0 mg/kg/injection, schedule: Q01DX005 (ip), vehicle: saline with Tween-80
# [8] = dose: 100.0 mg/kg/injection, schedule: Q01DX005 (ip), vehicle: saline with Tween-80
# [9] = dose: 200.0 mg/kg/injection, schedule: Q01DX005 (ip), vehicle: saline with Tween-80
# [10] = dose: 60.0 mg/kg/injection, schedule: Q01DX005 (ip), vehicle: saline with Tween-80
# [11] = dose: 120.0 mg/kg/injection, schedule: Q01DX005 (ip), vehicle: saline with Tween-80
# [12] = dose: 240.0 mg/kg/injection, schedule: Q01DX005 (ip), vehicle: saline with Tween-80
# [13] = dose: 6.0 mg/kg/injection, schedule: Q01DX005 (ip), vehicle: Klucel (hydroxypropylcellulose) (HPC)
# [14] = dose: 12.0 mg/kg/injection, schedule: Q01DX005 (ip), vehicle: Klucel (hydroxypropylcellulose) (HPC)
# [15] = dose: 24.0 mg/kg/injection, schedule: Q01DX005 (ip), vehicle: Klucel (hydroxypropylcellulose) (HPC)
# [16] = dose: 50.0 mg/kg/injection, schedule: Q01DX009 (ip), vehicle: saline with Tween-80
# [17] = dose: 400.0 mg/kg/injection, schedule: Q01DX009 (ip), vehicle: Klucel (hydroxypropylcellulose) (HPC)
# [18] = dose: 12.5 mg/kg/injection, schedule: Q01DX009 (ip), vehicle: saline with Tween-80
# [19] = dose: 25.0 mg/kg/injection, schedule: Q01DX009 (ip), vehicle: saline with Tween-80
smiles,measurement,setting,value
COc1cc2oc3cc(OC)c(OC)c(CC=C(C)C)c3c(=O)c2c(O)c1CC=C(C)C,T/C,[1],87 % of control
same,T/C,[2],100 % of control
same,T/C,[3],86 % of control and 97 % of control
same,T/C,"dose: 200.0 mg/kg/injection, schedule: Q01DX005 (ip), vehicle: Klucel (hydroxypropylcellulose) (HPC)",105 % of control
S=C1CC(c2ccc(Sc3ccccc3)cc2)=Nc2ccccc2N1,T/C,"dose: 25.0 mg/kg/injection, schedule: Q01DX009 (ip), vehicle: Klucel (hydroxypropylcellulose) (HPC)",90 % of control
same,T/C,[4],90 % of control
same,T/C,[5],99 % of control and 87 % of control
same,T/C,[6],100 % of control
CCOC(=O)Cn1cnc2cc(C)c(C)cc21,T/C,"dose: 100.0 mg/kg/injection, schedule: Q04DX003 (ip), vehicle: saline with Tween-80",90 % of control
same,T/C,"dose: 200.0 mg/kg/injection, schedule: Q04DX003 (ip), vehicle: saline with Tween-80",100 % of control
same,T/C,"dose: 400.0 mg/kg/injection, schedule: Q04DX003 (ip), vehicle: saline with Tween-80",90 % of control
Cc1c(OCC(=O)N/N=C/c2ccc(N(CCCl)CCCl)cc2)ccc2c(=O)c3ccccc3oc12,T/C,"dose: 60.0 mg/kg/injection, schedule: Q01DX005 (ip), vehicle: Klucel (hydroxypropylcellulose) (HPC)",96 % of control
same,T/C,"dose: 120.0 mg/kg/injection, schedule: Q01DX005 (ip), vehicle: Klucel (hydroxypropylcellulose) (HPC)",98 % of control
CN(CCN1C(=O)c2cccc3cc([N+](=O)[O-])cc(c23)C1=O)CCN1C(=O)c2cccc3cc([N+](=O)[O-])cc(c23)C1=O,T/C,[7],98 % of control
same,T/C,[8],97 % of control
same,T/C,[9],114 % of control
COC(=O)Nc1cn2ccsc2n1,T/C,[7],105 % of control
same,T/C,[8],102 % of control
same,T/C,[9],105 % of control
Nc1nnc(SCCCCCCSc2nnc(N)s2)s1,T/C,[7],86 % of control
same,T/C,[8],86 % of control
CCOC(=O)NC(NC(=O)OCC)c1cccc(F)c1,T/C,"dose: 100.0 mg/kg/injection, schedule: Q04DX003 (ip), vehicle: saline",99 % of control
same,T/C,"dose: 200.0 mg/kg/injection, schedule: Q04DX003 (ip), vehicle: saline",99 % of control
same,T/C,"dose: 400.0 mg/kg/injection, schedule: Q04DX003 (ip), vehicle: saline",93 % of control
COc1cc(OC)cc(C2SCC(=O)N2c2nncs2)c1 (stereo not drawn),T/C,[10],107 % of control
same,T/C,[11],98 % of control
same,T/C,[12],93 % of control
O=C1NNC(=O)C2(CCC(O)C2)c2ccncc21 (stereo not drawn),T/C,"dose: 3.75 mg/kg/injection, schedule: Q01DX005 (ip), vehicle: saline",105 % of control
same,T/C,"dose: 7.5 mg/kg/injection, schedule: Q01DX005 (ip), vehicle: saline",92 % of control
same,T/C,"dose: 15.0 mg/kg/injection, schedule: Q01DX005 (ip), vehicle: saline",96 % of control
same,T/C,"dose: 30.0 mg/kg/injection, schedule: Q01DX005 (ip), vehicle: saline",105 % of control
O=S(=O)([O-])NC1CCCCC1.O=S(=O)([O-])NC1CCCCC1.[Hg+2].[Hg+2].[Hg+2].[O-2].[O-2],T/C,"dose: 0.5 mg/kg/injection, schedule: Q04DX003 (ip), vehicle: saline",96 % of control
same,T/C,"dose: 1.0 mg/kg/injection, schedule: Q04DX003 (ip), vehicle: saline",100 % of control
same,T/C,"dose: 2.0 mg/kg/injection, schedule: Q04DX003 (ip), vehicle: saline",100 % of control
CC1(C)CC2C1(O)CCC1(C)C(O)C=CC21CO (stereo not drawn),T/C,[13],98 % of control
same,T/C,[14],95 % of control
same,T/C,[15],100 % of control
same,T/C,[1],93 % of control
same,T/C,"dose: 48.0 mg/kg/injection, schedule: Q01DX005 (ip), vehicle: Klucel (hydroxypropylcellulose) (HPC)",90 % of control
same,T/C,[2],93 % of control
same,T/C,[3],90 % of control
CN=C(c1ccc(NC(=O)c2cc(C(=O)Nc3ccc(C(=NC)N(C)C)cc3)cc([N+](=O)[O-])c2)cc1)N(C)C,T/C,"dose: 6.25 mg/kg/injection, schedule: Q01DX005 (ip), vehicle: saline",101 % of control
same,T/C,"dose: 12.5 mg/kg/injection, schedule: Q01DX005 (ip), vehicle: saline",98 % of control
CC(C)(C)N=C(Cc1ccccc1)N1CCCCC1,T/C,[16],100 % of control
same,T/C,"dose: 100.0 mg/kg/injection, schedule: Q01DX009 (ip), vehicle: saline with Tween-80",96 % of control
Cn1c2ncccc2c(=O)c2c(O)cc3c(c21)C=CC(C)(C)O3,T/C,"dose: 12.5 mg/kg/injection, schedule: Q01DX005 (ip), vehicle: Klucel (hydroxypropylcellulose) (HPC)",100 % of control
same,T/C,[1],102 % of control
same,T/C,[2],101 % of control and 93 % of control
C=C1C(=O)OC2C1CC(O)/C(C)=C\CCC1(C)OC21 (stereo not drawn),T/C,"dose: 50.0 mg/kg/injection, schedule: Q01DX009 (ip), vehicle: distilled water + Tween-80 + alcohol",117 % of control
same,T/C,"dose: 70.0 mg/kg/injection, schedule: Q01DX009 (ip), vehicle: distilled water + Tween-80 + alcohol",117 % of control
same,T/C,"dose: 70.0 mg/kg/injection, schedule: Q01DX009 (ip), vehicle: water",122 % of control
same,T/C,"dose: 90.0 mg/kg/injection, schedule: Q01DX009 (ip), vehicle: distilled water + Tween-80 + alcohol",104 % of control
N=C(N)c1ccc2oc(/C=C/c3cc4ccc(C(=N)N)cc4o3)cc2c1,T/C,"dose: 400.0 mg/kg/injection, schedule: Q04DX003 (ip), vehicle: suspension in saline",150 % of control
CCC(O)C#C[Si](C)(C)C (stereo not drawn),T/C,"dose: 60.0 mg/kg/injection, schedule: Q01DX005 (ip), vehicle: saline",97 % of control
same,T/C,"dose: 120.0 mg/kg/injection, schedule: Q01DX005 (ip), vehicle: saline",100 % of control
same,T/C,"dose: 240.0 mg/kg/injection, schedule: Q01DX005 (ip), vehicle: saline",103 % of control
Cc1cc(O)c2c(c1)C(=O)c1c(-c3ccc(O)c4c3C(=O)c3c(O)c(C)cc(O)c3C4=O)ccc(O)c1C2=O,T/C,"dose: 3.0 mg/kg/injection, schedule: Q01DX005 (ip), vehicle: Klucel (hydroxypropylcellulose) (HPC)",95 % of control
same,T/C,[13],95 % of control
same,T/C,[14],93 % of control
same,T/C,[15],86 % of control
C1=NOC2c3ccc4ccccc4c3CCC12 (stereo not drawn),T/C,[5],100 % of control
same,T/C,[6],95 % of control
same,T/C,[17],100 % of control
Cc1nc2c([N+](=O)[O-])cccc2c2ccccc12,T/C,"dose: 100.0 mg/kg/injection, schedule: Q04DX002 (ip), vehicle: Klucel (hydroxypropylcellulose) (HPC)",94 % of control
same,T/C,"dose: 200.0 mg/kg/injection, schedule: Q04DX002 (ip), vehicle: Klucel (hydroxypropylcellulose) (HPC)",89 % of control
same,T/C,"dose: 400.0 mg/kg/injection, schedule: Q04DX002 (ip), vehicle: Klucel (hydroxypropylcellulose) (HPC)",98 % of control
CCCCc1ccc(N(C)C)cc1,T/C,[18],101 % of control
same,T/C,[19],110 % of control
same,T/C,[16],110 % of control
CCC(=O)O[C@H]1CC[C@H]2[C@@H]3CC[C@H]4CCCC[C@]4(C)[C@H]3CC[C@]12C,T/C,[5],90 % of control
same,T/C,[6],95 % of control
same,T/C,[17],105 % of control
O=C1C=CC(=Nc2ccc(N(CCCl)CCCl)cc2)C=C1,T/C,[4],89 % of control
same,T/C,[5],89 % of control
C=CN=NNc1ccccc1,T/C,"dose: 100.0 mg/kg/injection, schedule: Q04DX003 (ip), vehicle: saline + Tween-80 + alcohol",105 % of control
same,T/C,"dose: 200.0 mg/kg/injection, schedule: Q04DX003 (ip), vehicle: saline + Tween-80 + alcohol",106 % of control
same,T/C,"dose: 400.0 mg/kg/injection, schedule: Q04DX003 (ip), vehicle: saline + Tween-80 + alcohol",110 % of control
C[NH-].C[NH-].[Cl][Pt+2][Cl],T/C,"dose: 12.5 mg/kg/injection, schedule: Q01DX009 (ip), vehicle: saline",113 % of control
O=C(NNC(=O)c1cccnc1)Nc1cccc(Cl)c1Cl,T/C,[18],104 % of control
same,T/C,[19],100 % of control
same,T/C,[16],95 % of control
COc1nc(NC2OCC(O)C(O)C2O)c(Cl)c(=O)n1C (stereo not drawn),T/C,[10],93 % of control
same,T/C,[11],90 % of control
same,T/C,[12],100 % of control
S=C1OCCO1,T/C,[4],106 % of control
same,T/C,[5],102 % of control
same,T/C,[6],100 % of control
same,T/C,[17],105 % of control
